Measured values taken from patent US20080096811A1, “[…] VPAC2 RECEPTOR PEPTIDE AGONISTS” (Eli Lilly and Company, published 2008).
*1 amine or outer side, *2 acyl side, *3 side chain or, on linkers, in order; H or OH if unused. Where a SMILES comes first, the peptide text is derived from it. Where no end group is shown, it is not given here. Side-chain parts run from the residue outwards. The star is where a group is joined. γGlu = O=C(O)[C@H](CCC(=O)[*:2])N[*:1]; Palmitoyl = CCCCCCCCCCCCCCCC(=O)*; Hexanoyl = CCCCCC(=O)*; Propionyl = CCC(=O)*

T1: human VPAC2 (Homo sapiens, UniProt P41587)
T1 construct: expressed in transfected cells
T1 sequence (P41587 24-438): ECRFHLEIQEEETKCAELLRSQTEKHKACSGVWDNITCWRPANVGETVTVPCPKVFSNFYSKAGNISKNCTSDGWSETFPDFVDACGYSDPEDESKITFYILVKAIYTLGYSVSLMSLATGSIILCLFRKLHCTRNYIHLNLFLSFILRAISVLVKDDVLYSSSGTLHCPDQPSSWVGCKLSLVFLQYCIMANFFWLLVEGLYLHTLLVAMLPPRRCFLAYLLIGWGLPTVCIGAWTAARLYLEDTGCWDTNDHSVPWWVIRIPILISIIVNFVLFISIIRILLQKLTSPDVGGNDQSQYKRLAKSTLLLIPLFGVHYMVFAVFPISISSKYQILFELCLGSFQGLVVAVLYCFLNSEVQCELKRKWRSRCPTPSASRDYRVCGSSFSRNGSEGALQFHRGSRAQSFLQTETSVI

T2: human VPAC1 (Homo sapiens, UniProt P32241)
T2 sequence (P32241 31-457): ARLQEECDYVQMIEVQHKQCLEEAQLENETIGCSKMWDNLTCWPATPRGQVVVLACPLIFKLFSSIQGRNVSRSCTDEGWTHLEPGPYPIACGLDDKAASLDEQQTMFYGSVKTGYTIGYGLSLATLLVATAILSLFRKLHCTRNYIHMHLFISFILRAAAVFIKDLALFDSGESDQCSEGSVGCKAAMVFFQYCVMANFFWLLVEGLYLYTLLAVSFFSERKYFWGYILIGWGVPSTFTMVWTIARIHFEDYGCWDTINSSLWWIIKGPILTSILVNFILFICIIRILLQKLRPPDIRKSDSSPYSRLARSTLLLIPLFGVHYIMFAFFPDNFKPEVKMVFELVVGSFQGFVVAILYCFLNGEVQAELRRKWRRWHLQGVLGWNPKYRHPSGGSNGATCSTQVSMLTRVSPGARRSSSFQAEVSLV

T3: human VPAC2 receptor (human) (UniProt P41587)
T3 sequence: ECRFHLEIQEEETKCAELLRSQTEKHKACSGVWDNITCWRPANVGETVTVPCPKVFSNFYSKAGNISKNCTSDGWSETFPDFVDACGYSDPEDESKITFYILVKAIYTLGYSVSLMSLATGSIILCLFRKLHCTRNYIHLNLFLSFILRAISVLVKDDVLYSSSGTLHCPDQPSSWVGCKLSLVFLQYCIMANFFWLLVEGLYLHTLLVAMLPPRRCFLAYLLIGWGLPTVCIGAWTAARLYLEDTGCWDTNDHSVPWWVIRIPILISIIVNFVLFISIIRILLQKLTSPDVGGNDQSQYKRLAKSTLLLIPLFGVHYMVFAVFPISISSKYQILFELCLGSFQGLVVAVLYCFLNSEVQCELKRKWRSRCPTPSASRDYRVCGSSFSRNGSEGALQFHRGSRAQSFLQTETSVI


Assays:
human PAC1 = human PAC1 (Homo sapiens, UniProt P41586); experiment: biochemical
human PAC1, sequence (P41586 21-468): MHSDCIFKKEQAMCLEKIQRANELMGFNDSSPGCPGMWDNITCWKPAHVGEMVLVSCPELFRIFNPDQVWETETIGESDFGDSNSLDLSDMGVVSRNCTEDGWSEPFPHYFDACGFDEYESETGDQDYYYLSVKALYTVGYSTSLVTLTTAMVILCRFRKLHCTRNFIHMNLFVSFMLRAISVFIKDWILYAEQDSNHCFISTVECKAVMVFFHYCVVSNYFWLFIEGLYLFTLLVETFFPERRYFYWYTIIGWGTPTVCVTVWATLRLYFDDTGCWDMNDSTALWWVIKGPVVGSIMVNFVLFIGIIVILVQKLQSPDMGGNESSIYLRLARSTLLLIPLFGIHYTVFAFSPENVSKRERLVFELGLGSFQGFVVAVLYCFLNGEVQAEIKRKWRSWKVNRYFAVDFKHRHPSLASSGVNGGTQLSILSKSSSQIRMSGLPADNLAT
Protocol: (§1) For this assay, the solutions and equipment include:
(§2) Presoak solution: 0.5% Polyethyleneamine in Aqua dest.
(§3) Buffer for flushing filter plates: 25 mM […] pH 7.4
(§4) Blocking buffer: 25 mM HEPES pH 7.4; 0.2% protease free BSA
(§5) Assay buffer: 25 mM HEPES pH 7.4; 0.5% protease free BSA
(§6) Dilution and assay plate: PS-Microplate, U form
(§7) Filtration Plate Multiscreen FB Opaque Plate; […] Type B Glasfiber filter
(§8) In order to prepare the filter plates, aspirate the presoak solution by vacuum filtration. Flush the plates twice with 200 μL flush buffer. Add 200 μL blocking buffer to the filter plate. The filter plate is then incubated […] for 1 hour at room temperature.
(§9) Fill the assay plate with 25 μL assay buffer, 25 μL membranes (2.5 μg) suspended in assay buffer, 25 μL compound (agonist) in assay buffer, and 25 μL tracer (about 40000 cpm) in assay buffer. Incubate the filled plate for 1 hour with shaking.
(§10) Conduct the transfer from assay plate to filter plate. Aspirate the blocking buffer by vacuum filtration and wash two times with flush buffer. Transfer 90 μL from the assay plate to the filter plate. Aspirate the 90 μL transferred from assay plate and wash three times with 200 μL flush buffer. Remove the plastic support. Dry for 1 hour at 60° C. Add 30 μL Microscint. Perform the count.

human VPAC2 [1] = molecular target: T1, human VPAC2; experiment: Filter binding assay, human VPAC2 membranes, 125I-labeled VIP tracer
Protocol: as §1, §2, §3, §4, §5, §6, §7, §8, §9, §10

human VPAC1 = molecular target: T2, human VPAC1; experiment: Filter binding assay, human VPAC1 membranes, 125I-labeled VIP tracer; parameters: expressed in transfected cells
Protocol: as §1, §2, §3, §4, §5, §6, §7, §8, §9, §10

human VPAC2 [2] = molecular target: T1, human VPAC2; experiment: Alpha screen cAMP in vitro potency, human VPAC2; format: cell-based
Protocol: Alpha screen: Cells are washed in the culture flask once with PBS. Then, the cells are rinsed with enzyme free dissociation buffer. The dissociated cells are removed. The cells are then spun down and washed in stimulation buffer. For each data point, 50,000 cells suspended in stimulation buffer are used. To this buffer, Alpha screen acceptor beads are added along with the stimuli. This mixture is incubated for 60 minutes. Lysis buffer and Alpha screen donor beads are added and are incubated for 60 to 120 minutes. The Alpha screen signal (indicative of intracellular cAMP levels) is read in a suitable instrument (e.g. AlphaQuest from Perlin-Elmer). Steps including Alpha screen donor and acceptor beads are performed in reduced light.

[3] = molecular target: T3, human VPAC2 receptor (human)

| EC50 (nM) for cAMP generation, Alpha Screen [3] [nM] | EC50 (nM) for cAMP generation, DiscoveRx [3] [nM] | Molecule | IC50 (human PAC1) [nM] | IC50 (human VPAC2 [1]) [nM] | IC50 (human VPAC1) [nM] | EC50 (human VPAC2 [2]) [nM] |
| --- | --- | --- | --- | --- | --- | --- |
|  |  | CCCCCC(=O)N[C@@H](Cc1c[nH]cn1)C(=O)N[C@@H](CO)C(=O)N[C@@H](CC(=O)O)C(=O)N[C@@H](C)C(=O)N[C@H](C(=O)N[C@@H](Cc1ccccc1)C(=O)N[C@H](C(=O)N[C@@H](CC(=O)O)C(=O)N[C@@H](CC(N)=O)C(=O)N[C@@H](Cc1ccc(O)cc1)C(=O)N[C@H](C(=O)N[C@@H](CCCNC(=N)N)C(=O)N[C@@H](CC(C)C)C(=O)N[C@@H](CCCNC(=N)N)C(=O)N[C@@H](CCCCN)C(=O)N[C@@H](CCC(N)=O)C(=O)N[C@H](C(=O)N[C@@H](C)C(=O)N[C@@H](C)C(=O)N[C@@H](CCCCN)C(=O)N[C@@H](CCCCN)C(=O)N[C@@H](Cc1ccc(O)cc1)C(=O)N[C@@H](CC(C)C)C(=O)N[C@@H](CCC(N)=O)C(=O)N[C@@H](CO)C(=O)N[C@H](C(=O)N[C@@H](CCCCN)C(=O)N[C@@H](CC(N)=O)C(=O)N[C@@H](CO)C(=O)N[C@@H](CCCNC(=N)N)C(=O)N[C@H](C(=O)N[C@@H](CO)C(=O)N1CCC[C@H]1C(=O)N1CCC[C@H]1C(=O)N1CCC[C@H]1C(=O)N[C@@H](CCCCNC(=O)[C@@H](N)Cc1c[nH]c2ccccc12)C(N)=O)[C@@H](C)O)[C@@H](C)CC)C(C)C)[C@@H](C)O)[C@@H](C)O)C(C)C [Agonist P118] (Hexanoyl-HSDAVFTDNYTRLRKQVAAKKYLQSIKNSRTSPPPK(Trp)-NH2) | 125 | 0.25 | 76.3 |  |
|  |  | CC[C@H](C)[C@H](NC(=O)[C@H](CO)NC(=O)[C@H](CCC(N)=O)NC(=O)[C@H](CC(C)C)NC(=O)[C@H](Cc1ccc(O)cc1)NC(=O)[C@H](CCCCN)NC(=O)[C@H](CCCCN)NC(=O)[C@H](C)NC(=O)[C@H](C)NC(=O)[C@@H](NC(=O)[C@H](CCC(N)=O)NC(=O)[C@H](CCCCN)NC(=O)[C@H](CCCNC(=N)N)NC(=O)[C@H](CC(C)C)NC(=O)[C@H](CCCNC(=N)N)NC(=O)[C@@H](NC(=O)[C@H](Cc1ccc(O)cc1)NC(=O)[C@H](CC(N)=O)NC(=O)[C@H](CC(=O)O)NC(=O)[C@@H](NC(=O)[C@H](Cc1ccccc1)NC(=O)[C@@H](NC(=O)[C@H](C)NC(=O)[C@H](CC(=O)O)NC(=O)[C@H](CO)NC(=O)[C@@H](N)Cc1c[nH]cn1)C(C)C)[C@@H](C)O)[C@@H](C)O)C(C)C)C(=O)N[C@@H](CCCCN)C(=O)N[C@@H](CC(N)=O)C(=O)N[C@@H](CO)C(=O)N[C@@H](CCCNC(=N)N)C(=O)N[C@H](C(=O)N[C@@H](CO)C(=O)N1CCC[C@H]1C(=O)N1CCC[C@H]1C(=O)N1CCC[C@H]1C(=O)N[C@@H](CCCCNC(=O)[C@@H](N)Cc1c[nH]c2ccccc12)C(N)=O)[C@@H](C)O [Agonist P128] (H-HSDAVFTDNYTRLRKQVAAKKYLQSIKNSRTSPPPK(Trp)-NH2) | 104 | 2.25 | 110 | 1.78 |
|  |  | CCCCCC(=O)N[C@@H](Cc1c[nH]cn1)C(=O)N[C@@H](CO)C(=O)N[C@@H](CC(=O)O)C(=O)N[C@@H](C)C(=O)N[C@H](C(=O)N[C@@H](Cc1ccccc1)C(=O)N[C@H](C(=O)N[C@@H](CC(=O)O)C(=O)N[C@@H](CC(N)=O)C(=O)N[C@@H](Cc1ccc(O)cc1)C(=O)N[C@H](C(=O)N[C@@H](CCCNC(=N)N)C(=O)N[C@@H](CC(C)C)C(=O)N[C@@H](CCCNC(=N)N)C(=O)N[C@@H](CCCCN)C(=O)N[C@@H](C)C(=O)N[C@@H](C)C(=O)N[C@@H](C)C(=O)N[C@@H](C)C(=O)N[C@@H](CCCCN)C(=O)N[C@@H](CCCCN)C(=O)N[C@@H](Cc1ccc(O)cc1)C(=O)N[C@@H](CC(C)C)C(=O)N[C@@H](CCC(N)=O)C(=O)N[C@@H](CO)C(=O)N[C@H](C(=O)N[C@@H](CCCCN)C(=O)N[C@@H](CC(N)=O)C(=O)N[C@@H](CO)C(=O)N[C@@H](CCCNC(=N)N)C(=O)N[C@H](C(=O)N[C@@H](CO)C(=O)N1CCC[C@H]1C(=O)N1CCC[C@H]1C(=O)N1CCC[C@H]1C(N)=O)[C@@H](C)O)[C@@H](C)CC)[C@@H](C)O)[C@@H](C)O)C(C)C [Agonist P178] (Hexanoyl-HSDAVFTDNYTRLRKAAAAKKYLQSIKNSRTSPPP-NH2) |  | 0.16 | 35.7 | 0.12 |
|  |  | CC[C@H](C)[C@H](NC(=O)[C@H](CO)NC(=O)[C@H](CC(N)=O)NC(=O)[C@H](CC(C)C)NC(=O)[C@H](Cc1ccc(O)cc1)NC(=O)[C@H](CCCCN)NC(=O)[C@H](CCCCN)NC(=O)[C@@H](NC(=O)[C@H](C)NC(=O)[C@H](CCSC)NC(=O)[C@H](CCC(N)=O)NC(=O)[C@H](CCCCN)NC(=O)[C@H](CCCN=C(N)N)NC(=O)[C@H](CC(C)C)NC(=O)[C@H](CCCN=C(N)N)NC(=O)[C@@H](NC(=O)[C@H](Cc1ccc(O)cc1)NC(=O)[C@H](CC(N)=O)NC(=O)[C@H](CC(=O)O)NC(=O)[C@@H](NC(=O)[C@H](Cc1ccccc1)NC(=O)[C@@H](NC(=O)[C@H](C)NC(=O)[C@H](CC(=O)O)NC(=O)[C@H](CO)NC(=O)[C@@H](N)Cc1cnc[nH]1)C(C)C)[C@@H](C)O)[C@@H](C)O)C(C)C)C(=O)N[C@@H](CC(C)C)C(=O)N[C@@H](CC(N)=O)C(=O)O [VIP, reference compound] | > 25000 |  |  |  |
| 0.24 | 0.45 | Propionyl-HSDAVFTDNYTRLRKQVAAKKYLQSIKNSRTSPPPK([γGlu-Palmitoyl])-NH2 (SMILES CCCCCCCCCCCCCCCC(=O)N[C@@H](CCC(=O)NCCCC[C@H](NC(=O)[C@@H]1CCCN1C(=O)[C@@H]1CCCN1C(=O)[C@@H]1CCCN1C(=O)[C@H](CO)NC(=O)[C@@H](NC(=O)[C@H](CCCNC(=N)N)NC(=O)[C@H](CO)NC(=O)[C@H](CC(N)=O)NC(=O)[C@H](CCCCN)NC(=O)[C@@H](NC(=O)[C@H](CO)NC(=O)[C@H](CCC(N)=O)NC(=O)[C@H](CC(C)C)NC(=O)[C@H](Cc1ccc(O)cc1)NC(=O)[C@H](CCCCN)NC(=O)[C@H](CCCCN)NC(=O)[C@H](C)NC(=O)[C@H](C)NC(=O)[C@@H](NC(=O)[C@H](CCC(N)=O)NC(=O)[C@H](CCCCN)NC(=O)[C@H](CCCNC(=N)N)NC(=O)[C@H](CC(C)C)NC(=O)[C@H](CCCNC(=N)N)NC(=O)[C@@H](NC(=O)[C@H](Cc1ccc(O)cc1)NC(=O)[C@H](CC(N)=O)NC(=O)[C@H](CC(=O)O)NC(=O)[C@@H](NC(=O)[C@H](Cc1ccccc1)NC(=O)[C@@H](NC(=O)[C@H](C)NC(=O)[C@H](CC(=O)O)NC(=O)[C@H](CO)NC(=O)[C@H](Cc1c[nH]cn1)NC(=O)CC)C(C)C)[C@@H](C)O)[C@@H](C)O)C(C)C)[C@@H](C)CC)[C@@H](C)O)C(N)=O)C(=O)O) [P95] |  |  |  |  |
| 0.9 |  | HSDAVFTDNYTRLRKQAAAKKYLQSIKNSRTSPPP-NH2 [P96] |  |  |  |  |
